≈ marks a conversion by molar mass, not a printed value. Like-named read-outs stand apart in the source and are kept apart here.
What was measured:
Enterob. cloacae = test: MIC by Steers' agar dilution method
Pr. vulgaris = test: MIC by Steers' agar dilution method; conditions: Proteus vulgaris
P. stuartii = test: MIC by Steers' agar dilution method; conditions: Providencia stuartii
Shig. dysenteriae = test: MIC by Steers' agar dilution method; conditions: Shigella dysenteriae, MHA
Citrobacter sp. = test: MIC by Steers' agar dilution method
K. pneumoniae A9977 = test: Standard experimental infection in mice; type: in vivo; conditions: for ED50: Klebsiella pneumoniae, A9977, read-out: PD50

SMILES: Cn1nnnc1SCC1=C(C(=O)O)N2C(=O)[C@@H](NC(=O)[C@H](O)c3ccccc3)[C@H]2SC1 [Cefamandole, cefamandole, reference compound]
- MIC (Enterob. cloacae; A9656, MHA, Table 1): 3.1 µg/mL (≈ 6.7 µM)
- MIC (Enterob. cloacae; El-1 A9656, HIA, Table 4): 3.1 µg/mL (≈ 6.7 µM)
- MIC (Enterob. cloacae; El-1 A9656, MHA, Table 3): 3.1 µg/mL (≈ 6.7 µM)
- MIC (Enterob. cloacae; El-1 A9656, MHA, Table 4): 3.1 µg/mL (≈ 6.7 µM)
- MIC (Enterob. cloacae; El-1 A9656, NA, Table 4): 6.3 µg/mL (≈ 13.6 µM)
- MIC (Enterob. cloacae; El-2 A20364 (β-lactamase), HIA, Table 4): 100 µg/mL (≈ 216 µM)
- MIC (Enterob. cloacae; El-2 A20364 (β-lactamase), MHA, Table 4): 50 µg/mL (≈ 108 µM)
- MIC (Enterob. cloacae; El-2 A20364 (β-lactamase), NA, Table 4): 6.3 µg/mL (≈ 13.6 µM)
- MIC (Enterob. cloacae; El-2 A20364, MHA, Table 3): 3.1 µg/mL (≈ 6.7 µM)
- MIC (Enterob. cloacae; El-4 A20650, MHA, Table 3): 1.6 µg/mL (≈ 3.46 µM)
- MIC (Enterob. cloacae; El-6 A9657, MHA, Table 3): 0.8 µg/mL (≈ 1.73 µM)
- MIC (Enterob. cloacae; El-7 A9659, MHA, Table 3): 0.8 µg/mL (≈ 1.73 µM)
- MIC (Enterob. cloacae; El-8 A9655, MHA, Table 3): 1.6 µg/mL (≈ 3.46 µM)
- MIC (Enterob. cloacae; El-9 A20021, MHA, Table 3): 100 µg/mL (≈ 216 µM)
- MIC (Enterob. cloacae; El-11 A20344 (β-lactamase), HIA, Table 4): > 100 µg/mL
- MIC (Enterob. cloacae; El-11 A20344 (β-lactamase), MHA, Table 4): > 100 µg/mL
- MIC (Enterob. cloacae; El-11 A20344 (β-lactamase), NA, Table 4): > 100 µg/mL
- MIC (Enterob. cloacae; El-11 A20344, MHA, Table 3): > 100 µg/mL
- MIC (Enterob. cloacae; El-12 A21006, MHA, Table 3): 3.1 µg/mL (≈ 6.7 µM)
- MIC (Enterob. cloacae; El-14 A20953, MHA, Table 3): 3.1 µg/mL (≈ 6.7 µM)
- MIC (Enterob. cloacae; MHA, Example 10): 3.1 µg/mL (≈ 6.7 µM)
- MIC (Pr. vulgaris; A9436, MHA, Table 1): 0.4 µg/mL (≈ 0.865 µM)
- MIC (Pr. vulgaris; A9699, MHA, Table 1): 6.3 µg/mL (≈ 13.6 µM)
- MIC (Pr. vulgaris; ATCC9920, Pv-4 ATCC 9920, MHA, Table 3): 0.2 µg/mL (≈ 0.432 µM)
- MIC (Pr. vulgaris; Pv-1 A9436, HIA, Table 4): 0.4 µg/mL (≈ 0.865 µM)
- MIC (Pr. vulgaris; Pv-1 A9436, MHA, Table 3): 0.8 µg/mL (≈ 1.73 µM)
- MIC (Pr. vulgaris; Pv-1 A9436, MHA, Table 4): 0.4 µg/mL (≈ 0.865 µM)
- MIC (Pr. vulgaris; Pv-1 A9436, NA, Table 4): 0.2 µg/mL (≈ 0.432 µM)
- MIC (Pr. vulgaris; Pv-2 A9526, MHA, Table 3): 1.6 µg/mL (≈ 3.46 µM)
- MIC (Pr. vulgaris; Pv-3 A9699 (β-lactamase), HIA, Table 4): 100 µg/mL (≈ 216 µM)
- MIC (Pr. vulgaris; Pv-3 A9699 (β-lactamase), MHA, Table 4): 50 µg/mL (≈ 108 µM)
- MIC (Pr. vulgaris; Pv-3 A9699 (β-lactamase), NA, Table 4): 6.3 µg/mL (≈ 13.6 µM)
- MIC (Pr. vulgaris; Pv-3 A9699, MHA, Table 3): 50 µg/mL (≈ 108 µM)
- MIC (Pr. vulgaris; Pv-5 A9539, MHA, Table 3): > 100 µg/mL
- MIC (Pr. vulgaris; Pv-6 A9716, MHA, Table 3): 0.8 µg/mL (≈ 1.73 µM)
- MIC (Pr. vulgaris; Pv-7 A21240, MHA, Table 3): > 100 µg/mL
- MIC (Pr. vulgaris; strain not given (1st of 2), MHA, Example 10): 0.2 µg/mL (≈ 0.432 µM)
- MIC (Pr. vulgaris; strain not named (2nd of 2), MHA, Example 10): 50 µg/mL (≈ 108 µM)
- MIC (P. stuartii; Ps-1 A20745, HIA, Table 4): 6.3 µg/mL (≈ 13.6 µM)
- MIC (P. stuartii; Ps-1 A20745, MHA, Table 3): 0.8 µg/mL (≈ 1.73 µM)
- MIC (P. stuartii; Ps-1 A20745, MHA, Table 4): 1.6 µg/mL (≈ 3.46 µM)
- MIC (P. stuartii; Ps-1 A20745, NA, Table 4): 6.3 µg/mL (≈ 13.6 µM)
- MIC (P. stuartii; Ps-2 A20894, HIA, Table 4): 0.4 µg/mL (≈ 0.865 µM)
- MIC (P. stuartii; Ps-2 A20894, MHA, Table 3): 0.8 µg/mL (≈ 1.73 µM)
- MIC (P. stuartii; Ps-2 A20894, MHA, Table 4): 0.2 µg/mL (≈ 0.432 µM)
- MIC (P. stuartii; Ps-2 A20894, NA, Table 4): 0.4 µg/mL (≈ 0.865 µM)
- MIC (P. stuartii; Ps-3 A20911 (β-lactamase), HIA, Table 4): 6.3 µg/mL (≈ 13.6 µM)
- MIC (P. stuartii; Ps-3 A20911 (β-lactamase), MHA, Table 4): 3.1 µg/mL (≈ 6.7 µM)
- MIC (P. stuartii; Ps-3 A20911 (β-lactamase), NA, Table 4): 6.3 µg/mL (≈ 13.6 µM)
- MIC (P. stuartii; Ps-3 A20911, MHA, Table 3): 0.8 µg/mL (≈ 1.73 µM)
- MIC (P. stuartii; Ps-4 A21051, MHA, Table 3): 25 µg/mL (≈ 54.1 µM)
- MIC (P. stuartii; Ps-5 A21057, MHA, Table 3): 0.8 µg/mL (≈ 1.73 µM)
- MIC (Shig. dysenteriae; Example 10): 0.1 µg/mL (≈ 0.216 µM)
- MIC (Shig. dysenteriae; Table 1): 0.1 µg/mL (≈ 0.216 µM)
- MIC (Shig. dysenteriae; Sd-1, Table 3): 0.2 µg/mL (≈ 0.432 µM)
- MIC (Citrobacter sp.; Citrobacter): 1.6 µg/mL (≈ 3.46 µM)
- MIC (Citrobacter sp.; Cx-2 A20694, MHA, Table 3): 1.6 µg/mL (≈ 3.46 µM)
- MIC (Citrobacter sp.; Cx-3 A20695, MHA, Table 3): 1.6 µg/mL (≈ 3.46 µM)
- No. of survivors/No. tested (K. pneumoniae A9977; 0.4 mg./kg., Table 6): 0/5
- No. of survivors/No. tested (K. pneumoniae A9977; 1.6 mg./kg., Table 6): 0/5
- No. of survivors/No. tested (K. pneumoniae A9977; 6.3 mg./kg., Table 6): 1/5
- No. of survivors/No. tested (K. pneumoniae A9977; 25 mg./kg., Table 6): 5/5
- ED50 (K. pneumoniae A9977; Run C-805, 3×10^3 LD50, single sc): 9.4 mg/kg
- ED50 (K. pneumoniae A9977; Table 6): 6.25 mg/kg
- No. of survivors/No. tested (K. pneumoniae A9977; Run C-805, 3×10^3 LD50, single sc, 0.4 mg./kg.): 0/5
- No. of survivors/No. tested (K. pneumoniae A9977; Run C-805, 3×10^3 LD50, single sc, 1.6 mg./kg.): 0/5
- No. of survivors/No. tested (K. pneumoniae A9977; Run C-805, 3×10^3 LD50, single sc, 6.3 mg./kg.): 1/5
- No. of survivors/No. tested (K. pneumoniae A9977; Run C-805, 3×10^3 LD50, single sc, 25 mg./kg.): 5/5

From US4112228A, “7-(D-α-Hydroxy-2-arylacetamido)-3-(2-carboxyalkyl-2,3-dihydro-s-tri azolo-[4,3-b]pyridazin-3-on-6-ylthiomethyl)-3-cephem-4-carboxylic acids and derivatives” (priority 1977, dated 1978)
